# Compound: C=CCn1c(=O)c2cnc(Nc3ccc(N4CCN(C)CC4)cc3)nc2n1-c1cccc(C(C)(C)O)n1 [Adavosertib]
# Experiment: relative viability (nuclei count vs DMSO), 5 days (fraction); higher = more cells survive
# Settings: 0.01 µM
# Summary of the method: (§1)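 Hoechst staining, done together with fixation and permeabilisation, marked nuclei for 4× imaging and MetaXpress counting. This followed 5 days without medium change after lung cancer cell lines, kept overnight at 37 °C in 1536-well plates, were pinned with five library-drug doses (not always all listed) spaced by √10 on vehicle-anchored plates. Viability is the ratio of treated-well to vehicle-well nuclei, expressed as a median across plates. Plates passed only at control CV below 25% with at least one doubling.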
row,Cell Line,relative viability
1,NCI-H520,0.948
2,NCI-H596,1.05
3,NCI-H647,1.03
4,NCI-H650,0.896
5,NCI-H661,0.996
6,NCI-H727,0.961
7,NCI-H838,0.978
8,NCI-H1299,1.03
9,NCI-H1355,0.991
10,NCI-H1395,0.83
11,NCI-H1437,1.02
12,NCI-H1563,0.954
13,NCI-H1650,0.867
14,NCI-H1651,0.947
15,NCI-H1666,0.975
16,NCI-H1703,1.29

# Same assay, conditions: 0.03162 µM
row,Cell Line,relative viability
1,NCI-H520,0.876
2,NCI-H596,1.1
3,NCI-H647,1.04
4,NCI-H650,0.972
5,NCI-H661,1.03
6,NCI-H727,0.898
7,NCI-H838,0.919
8,NCI-H1299,0.999
9,NCI-H1355,0.99
10,NCI-H1395,0.901
11,NCI-H1437,0.912
12,NCI-H1563,0.894
13,NCI-H1650,0.981
14,NCI-H1651,0.985
15,NCI-H1666,1
16,NCI-H1703,0.892

# Same assay, conditions: 0.1 µM
row,Cell Line,relative viability
1,NCI-H520,1
2,NCI-H596,0.956
3,NCI-H647,0.918
4,NCI-H650,1.03
5,NCI-H661,1.08
6,NCI-H727,1.03
7,NCI-H838,0.996
8,NCI-H1299,1.04
9,NCI-H1355,0.948
10,NCI-H1395,0.887
11,NCI-H1437,1.03
12,NCI-H1563,0.917
13,NCI-H1650,0.943
14,NCI-H1651,0.979
15,NCI-H1666,1.05
16,NCI-H1703,1.08

# Same assay, conditions: 0.3162 µM
row,Cell Line,relative viability
1,NCI-H520,0.879
2,NCI-H596,0.931
3,NCI-H647,0.669
4,NCI-H650,0.859
5,NCI-H661,0.769
6,NCI-H727,0.936
7,NCI-H838,0.948
8,NCI-H1299,0.789
9,NCI-H1355,0.986
10,NCI-H1395,0.775
11,NCI-H1437,0.981
12,NCI-H1563,1.01
13,NCI-H1650,0.472
14,NCI-H1651,0.951
15,NCI-H1666,0.997
16,NCI-H1703,0.249

# Compound: COc1nc(N)nc2c1ncn2[C@@H]1O[C@H](CO)[C@@H](O)[C@@H]1O [Nelarabine]
# Experiment: as above
# Settings: 0.01 µM
# Summary of the method: as §1
row,Cell Line,relative viability
1,NCI-H520,1.2
2,NCI-H596,1.05
3,NCI-H647,1.29
4,NCI-H650,0.942
5,NCI-H661,1.07
6,NCI-H727,1.22
7,NCI-H838,1.3
8,NCI-H1299,1.07
9,NCI-H1355,1.18
10,NCI-H1395,0.997
11,NCI-H1437,1.21
12,NCI-H1563,1.04
13,NCI-H1650,1.13
14,NCI-H1651,1.1
15,NCI-H1666,1.05
16,NCI-H1703,1.3

# Same assay, conditions: 0.03162 µM
row,Cell Line,relative viability
1,NCI-H520,1.02
2,NCI-H596,1.01
3,NCI-H647,0.916
4,NCI-H650,0.996
5,NCI-H661,1.14
6,NCI-H727,0.891
7,NCI-H838,0.893
8,NCI-H1299,1.07
9,NCI-H1355,0.875
10,NCI-H1395,0.821
11,NCI-H1437,0.989
12,NCI-H1563,1.03
13,NCI-H1650,0.999
14,NCI-H1651,1.07
15,NCI-H1666,1.15
16,NCI-H1703,1

# Same assay, conditions: 0.1 µM
row,Cell Line,relative viability
1,NCI-H520,1.1
2,NCI-H596,1
3,NCI-H647,1.07
4,NCI-H650,0.962
5,NCI-H661,1
6,NCI-H727,0.856
7,NCI-H838,0.986
8,NCI-H1299,1.04
9,NCI-H1355,1.03
10,NCI-H1395,1.02
11,NCI-H1437,0.994
12,NCI-H1563,0.951
13,NCI-H1650,0.845
14,NCI-H1651,1.06
15,NCI-H1666,0.978
16,NCI-H1703,1.06

# Same assay, conditions: 0.3162 µM
row,Cell Line,relative viability
1,NCI-H520,0.941
2,NCI-H596,0.992
3,NCI-H647,1.14
4,NCI-H650,1
5,NCI-H661,1.04
6,NCI-H727,0.97
7,NCI-H838,1.05
8,NCI-H1299,1.07
9,NCI-H1355,1.04
10,NCI-H1395,0.928
11,NCI-H1437,1.04
12,NCI-H1563,0.985
13,NCI-H1650,0.978
14,NCI-H1651,1.08
15,NCI-H1666,0.97
16,NCI-H1703,1.06

# Same assay, conditions: 1 µM
row,Cell Line,relative viability
1,NCI-H520,1.01
2,NCI-H596,1.06
3,NCI-H647,0.997
4,NCI-H650,1.04
5,NCI-H661,0.999
6,NCI-H727,0.896
7,NCI-H838,1.04
8,NCI-H1299,1.03
9,NCI-H1355,1.02
10,NCI-H1395,0.842
11,NCI-H1437,0.918
12,NCI-H1563,0.986
13,NCI-H1650,0.928
14,NCI-H1651,1.01
15,NCI-H1666,0.967
16,NCI-H1703,0.953

# Compound: COc1nc(N)nc2c1ncn2[C@@H]1O[C@H](CO)[C@@H](O)[C@@H]1O [Nelarabine] + CS(=O)(=O)CCNCc1ccc(-c2ccc3ncnc(Nc4ccc(OCc5cccc(F)c5)c(Cl)c4)c3c2)o1 [Lapatinib] (partner 2 µM)
# Experiment: relative viability (nuclei count vs DMSO), 5 days (fraction); higher = more cells survive
# Settings: first compound 0.01 µM
# Summary of the method: (§2)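 Values are medians from duplicate plates. Each reflects relative viability, defined as the nuclei count of treated wells over that of vehicle wells. Lung cancer cell lines in 1536-well plates were pin-tool dosed one day after seeding with one drug alone or with a fixed anchor-drug dose plus five library-drug doses (not always all listed) in √10 steps, then fixed, stained and imaged at 4× after 5 days.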
row,Cell Line,relative viability
1,NCI-H520,0.991
2,NCI-H596,1.15
3,NCI-H647,1.37
4,NCI-H650,0.97
5,NCI-H661,0.497
6,NCI-H727,0.909
7,NCI-H838,1.38
8,NCI-H1299,1
9,NCI-H1355,1.14
10,NCI-H1395,0.959
11,NCI-H1437,1.06
12,NCI-H1563,0.944
13,NCI-H1650,0.882
14,NCI-H1651,1.1
15,NCI-H1666,0.711
16,NCI-H1703,1.65

# Same assay, conditions: first compound 0.03162 µM
row,Cell Line,relative viability
1,NCI-H520,0.947
2,NCI-H596,1.13
3,NCI-H647,0.807
4,NCI-H650,0.842
5,NCI-H661,0.644
6,NCI-H727,0.896
7,NCI-H838,1.07
8,NCI-H1299,0.999
9,NCI-H1355,0.7
10,NCI-H1395,1.1
11,NCI-H1437,0.83
12,NCI-H1563,1.02
13,NCI-H1650,0.834
14,NCI-H1651,1.02
15,NCI-H1666,0.604
16,NCI-H1703,1.33

# Same assay, conditions: first compound 0.1 µM
row,Cell Line,relative viability
1,NCI-H520,1.31
2,NCI-H596,1.27
3,NCI-H647,1.11
4,NCI-H650,0.929
5,NCI-H661,0.556
6,NCI-H727,0.922
7,NCI-H838,0.934
8,NCI-H1299,1.02
9,NCI-H1355,0.929
10,NCI-H1395,1.23
11,NCI-H1437,0.815
12,NCI-H1563,0.985
13,NCI-H1650,0.783
14,NCI-H1651,1.05
15,NCI-H1666,0.57
16,NCI-H1703,1.42

# Same assay, conditions: first compound 0.3162 µM
row,Cell Line,relative viability
1,NCI-H520,0.889
2,NCI-H596,0.892
3,NCI-H647,1.34
4,NCI-H650,1.07
5,NCI-H661,0.502
6,NCI-H727,0.74
7,NCI-H838,1.16
8,NCI-H1299,0.98
9,NCI-H1355,0.993
10,NCI-H1395,0.971
11,NCI-H1437,0.839
12,NCI-H1563,0.998
13,NCI-H1650,0.831
14,NCI-H1651,0.881
15,NCI-H1666,0.675
16,NCI-H1703,1.05

# Same assay, conditions: first compound 1 µM
row,Cell Line,relative viability
1,NCI-H520,0.887
2,NCI-H596,1.07
3,NCI-H647,1.14
4,NCI-H650,0.887
5,NCI-H661,0.509
6,NCI-H727,0.829
7,NCI-H838,1.14
8,NCI-H1299,1
9,NCI-H1355,1.07
10,NCI-H1395,1.5
11,NCI-H1437,0.79
12,NCI-H1563,1.03
13,NCI-H1650,0.826
14,NCI-H1651,0.854
15,NCI-H1666,0.646
16,NCI-H1703,1.11

# Compound: C=CCn1c(=O)c2cnc(Nc3ccc(N4CCN(C)CC4)cc3)nc2n1-c1cccc(C(C)(C)O)n1 [Adavosertib] + CS(=O)(=O)N1CCN(Cc2cc3nc(-c4cccc5[nH]ncc45)nc(N4CCOCC4)c3s2)CC1 [Pictilisib] (partner 1 µM)
# Experiment: as above
# Settings: first compound 0.01 µM
# Summary of the method: as §2
row,Cell Line,relative viability
1,NCI-H520,0.288
2,NCI-H596,0.338
3,NCI-H647,0.453
4,NCI-H650,0.926
5,NCI-H661,0.33
6,NCI-H727,0.525
7,NCI-H838,0.446
8,NCI-H1299,0.982
9,NCI-H1355,0.476
10,NCI-H1395,0.545
11,NCI-H1437,0.371
12,NCI-H1563,0.631
13,NCI-H1650,0.652
14,NCI-H1651,0.497
15,NCI-H1666,0.5
16,NCI-H1703,0.297

# Same assay, conditions: first compound 0.03162 µM
row,Cell Line,relative viability
1,NCI-H520,0.286
2,NCI-H596,0.379
3,NCI-H647,0.471
4,NCI-H650,1.04
5,NCI-H661,0.415
6,NCI-H727,0.341
7,NCI-H838,0.411
8,NCI-H1299,0.66
9,NCI-H1355,0.404
10,NCI-H1395,0.546
11,NCI-H1437,0.435
12,NCI-H1563,0.62
13,NCI-H1650,0.579
14,NCI-H1651,0.491
15,NCI-H1666,0.324
16,NCI-H1703,0.227

# Same assay, conditions: first compound 0.1 µM
row,Cell Line,relative viability
1,NCI-H520,0.381
2,NCI-H596,0.419
3,NCI-H647,0.405
4,NCI-H650,1.05
5,NCI-H661,0.352
6,NCI-H727,0.359
7,NCI-H838,0.449
8,NCI-H1299,0.541
9,NCI-H1355,0.45
10,NCI-H1395,0.596
11,NCI-H1437,0.401
12,NCI-H1563,0.609
13,NCI-H1650,0.506
14,NCI-H1651,0.565
15,NCI-H1666,0.309
16,NCI-H1703,0.179

# Same assay, conditions: first compound 0.3162 µM
row,Cell Line,relative viability
1,NCI-H520,0.269
2,NCI-H596,0.348
3,NCI-H647,0.318
4,NCI-H650,0.805
5,NCI-H661,0.322
6,NCI-H727,0.366
7,NCI-H838,0.485
8,NCI-H1299,0.123
9,NCI-H1355,0.378
10,NCI-H1395,0.635
11,NCI-H1437,0.404
12,NCI-H1563,0.625
13,NCI-H1650,0.3
14,NCI-H1651,0.42
15,NCI-H1666,0.403
16,NCI-H1703,0.127
